Measurements: article PMC5908784, “Extracellular loops 2 and 3 of the calcitonin receptor selectively modify agonist binding and efficacy” (Biochemical Pharmacology, 2018)
Where a chain is given by its changes, count along the chain named. Where two headings read alike, the source gives them in different places. Where a SMILES comes first, the peptide text is derived from it. Bridges are numbered along the chain shown (N, C = ends).

Experiments:
Test in all cases: cAMP accumulation
Format in all cases: cell-based
[1] = molecular target: T1, hCTR Y372A (Homo sapiens, UniProt P30988, Y372A); conditions: mean ± S.E.M.; for Emax: cAMP maximal response, SEM; for EC50: cAMP, CV1-FlpIn cells, 30 min, IBMX
T1 construct: c-Myc (N); expressed in transfected cells
T1 sequence (P30988 25-474 Y372A): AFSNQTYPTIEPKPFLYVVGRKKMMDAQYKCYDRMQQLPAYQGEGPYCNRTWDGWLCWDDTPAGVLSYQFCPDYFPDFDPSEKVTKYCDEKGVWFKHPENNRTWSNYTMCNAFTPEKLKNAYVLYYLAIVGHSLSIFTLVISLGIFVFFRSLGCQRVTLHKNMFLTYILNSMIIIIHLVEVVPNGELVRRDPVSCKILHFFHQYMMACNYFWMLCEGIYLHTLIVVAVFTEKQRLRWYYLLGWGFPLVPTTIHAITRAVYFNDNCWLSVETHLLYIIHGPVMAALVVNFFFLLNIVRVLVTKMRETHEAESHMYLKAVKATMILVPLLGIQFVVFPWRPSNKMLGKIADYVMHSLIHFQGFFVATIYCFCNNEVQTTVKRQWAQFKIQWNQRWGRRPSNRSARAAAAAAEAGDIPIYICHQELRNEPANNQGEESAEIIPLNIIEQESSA
Protocol: (§1) Cells (2.5 × 10^4 cells/well) were seeded into 96-well plates and incubated overnight. Cells were stimulated with increasing concentrations of ligands for 30 min in the presence of IBMX. The liquid was discarded, changed to absolute ethanol and volatilized to dryness at room temperature. […] Data were normalized to the response of 100 μM forskolin.
(§2) Data were corrected for radioligand occupancy using the Cheng-Prusoff equation in Prism; as such data are reported as pKi. Emax and EC50 were estimated from concentration-response curves using with a 3-parameter logistic equation in Prism (v7). These values are a composite of functional affinity, efficacy and stimulus response coupling. […] Significance was accepted at P < 0.05.

[2] = molecular target: T2, hCTR N288A (Homo sapiens, UniProt P30988, N288A); conditions: mean ± S.E.M.; for Emax: cAMP maximal response, SEM; for EC50: cAMP, CV1-FlpIn cells, 30 min, IBMX
T2 construct: expressed in transfected cells
T2 sequence (P30988 25-474 N288A): T1 sequence (P30988 25-474 Y372A) with N264A, A348Y
Protocol: as §1, §2

[3] = molecular target: T3, hCTR Y374A (Homo sapiens, UniProt P30988, Y374A); conditions: mean ± S.E.M.; for Emax: cAMP maximal response, SEM; for EC50: cAMP, CV1-FlpIn cells, 30 min, IBMX
T3 construct: c-Myc (N); expressed in transfected cells
T3 sequence (P30988 25-474 Y374A): T1 sequence (P30988 25-474 Y372A) with A348Y, Y350A
Protocol: as §1, §2

[4] = molecular target: T4, hCTR L368A (Homo sapiens, UniProt P30988, L368A); conditions: mean ± S.E.M.; for Emax: cAMP maximal response, SEM; for EC50: cAMP, CV1-FlpIn cells, 30 min, IBMX
T4 construct: c-Myc (N); expressed in transfected cells
T4 sequence (P30988 25-474 L368A): T1 sequence (P30988 25-474 Y372A) with L344A, A348Y
Protocol: as §1, §2

[5] = molecular target: T5, hCTR R362A (Homo sapiens, UniProt P30988, R362A); conditions: for Emax: read-out: Emax (% WT), SEM; for EC50: cAMP, CV1-FlpIn cells, 30 min, IBMX
T5 construct: expressed in transfected cells
T5 sequence (P30988 25-474 R362A): T1 sequence (P30988 25-474 Y372A) with R338A, A348Y
Protocol: as §1, §2

[6] = R362A, cAMP maximal response, mean ± S.E.M.

EC50 [1] [nM]	EC50 [2] [nM]	EC50 [3] [nM]	EC50 [4] [nM]	Emax [5, 6] [%]	EC50 ([5]; R362A, mean ± S.E.M.) [nM]	Structure (SMILES)	Emax [1] [%]	Emax [2] [%]	Emax [3] [%]	Emax [4] [%]	Emax [5] [%]
–	–	–	–	–	–	CC[C@H](C)[C@H](NC(=O)[C@H](C)NC(=O)[C@@H](NC(=O)[C@H](CCC(N)=O)NC(=O)[C@@H]1CCCN1C(=O)[C@H](Cc1ccccc1)NC(=O)[C@@H](NC(=O)[C@H](Cc1c[nH]cn1)NC(=O)[C@H](Cc1ccccc1)NC(=O)[C@H](CCCCN)NC(=O)[C@H](CC(N)=O)NC(=O)[C@H](Cc1ccccc1)NC(=O)[C@H](CC(=O)O)NC(=O)[C@H](CCC(N)=O)NC(=O)[C@@H](NC(=O)[C@H](Cc1ccc(O)cc1)NC(=O)[C@@H](NC(=O)CNC(=O)[C@H](CC(C)C)NC(=O)[C@H](CCSC)NC(=O)[C@@H]1CSSC[C@H](N)C(=O)NCC(=O)N[C@@H](CC(N)=O)C(=O)N[C@@H](CC(C)C)C(=O)N[C@@H](CO)C(=O)N[C@@H]([C@@H](C)O)C(=O)N1)[C@@H](C)O)[C@@H](C)O)[C@@H](C)O)[C@@H](C)O)C(=O)NCC(=O)N[C@H](C(=O)NCC(=O)N[C@@H](C)C(=O)N1CCC[C@H]1C(N)=O)C(C)C [hCT]	149 ± 12	117 ± 10	83.2 ± 5	70 ± 4	125 ± 9
123	10.2	25.1	11.5	51 ± 9	17.8	CC(C)C[C@H](NC(=O)CNC(=O)[C@H](C)NC(=O)[C@H](CC(C)C)NC(=O)[C@H](CCCNC(=N)N)NC(=O)[C@H](Cc1cnc[nH]1)NC(=O)[C@@H](NC(=O)[C@@H](NC(=O)[C@@H]1CSSC[C@H](NC(=O)[C@H](C)N)C(=O)N[C@@H](CC(=O)O)C(=O)N[C@@H]([C@@H](C)O)C(=O)N[C@@H](C)C(=O)N[C@@H]([C@@H](C)O)C(=O)N1)C(C)C)[C@@H](C)O)C(=O)N[C@@H](CC(C)C)C(=O)N[C@@H](CO)C(=O)N[C@@H](CCCNC(=N)N)C(=O)N[C@@H](CO)C(=O)NCC(=O)NCC(=O)N[C@H](C(=O)N[C@H](C(=O)N[C@@H](CCCCN)C(=O)N[C@@H](CC(N)=O)C(=O)N[C@@H](CC(N)=O)C(=O)N[C@@H](Cc1ccccc1)C(=O)N[C@H](C(=O)N1CCC[C@H]1C(=O)N[C@H](C(=O)N[C@@H](CC(N)=O)C(=O)N[C@H](C(=O)NCC(=O)N[C@@H](CO)C(=O)N[C@@H](CCCCN)C(=O)N[C@@H](C)C(=O)N[C@@H](Cc1ccccc1)C(N)=O)C(C)C)[C@@H](C)O)C(C)C)C(C)C)C(C)C [hαCGRP]	36 ± 8	118 ± 17	82 ± 12	78 ± 12	–
1.15	0.0631	0.02	0.0316	138 ± 9	0.182	CSCC[C@H](NC(=O)CNC(=O)[C@H](CO)NC(=O)[C@H](Cc1ccccc1)NC(=O)[C@H](CCCNC(=N)N)NC(=O)[C@H](Cc1c[nH]cn1)NC(=O)[C@H](Cc1ccccc1)NC(=O)[C@H](CC(N)=O)NC(=O)[C@H](CC(N)=O)NC(=O)[C@H](CC(C)C)NC(=O)[C@H](CC(N)=O)NC(=O)[C@H](CCCNC(=N)N)NC(=O)[C@H](Cc1c[nH]c2ccccc12)NC(=O)[C@H](Cc1ccc(O)cc1)NC(=O)[C@H](C)NC(=O)[C@H](CO)NC(=O)[C@H](CC(C)C)NC(=O)[C@@H](NC(=O)[C@@H]1CSSC[C@H](N)C(=O)N[C@@H](CO)C(=O)N[C@@H](CC(N)=O)C(=O)N[C@@H](CC(C)C)C(=O)N[C@@H](CO)C(=O)N[C@@H]([C@@H](C)O)C(=O)N1)C(C)C)C(=O)NCC(=O)N[C@@H](Cc1ccccc1)C(=O)NCC(=O)N1CCC[C@H]1C(=O)N[C@@H](CCC(=O)O)C(=O)N[C@H](C(=O)N1CCC[C@H]1C(N)=O)[C@@H](C)O [pCT] (H-CSNLSTCVLSAYWRNLNNFHRFSGMGFGPETP-NH2; disulfide 1-7)	137 ± 13	105 ± 10	90 ± 9	96 ± 6	–
–	–	–	–	–	–	CC(C)C[C@H](NC(=O)[C@H](CC(N)=O)NC(=O)[C@H](CC(N)=O)NC(=O)[C@H](CO)NC(=O)[C@H](CO)NC(=O)[C@H](CCCNC(=N)N)NC(=O)[C@@H](NC(=O)[C@H](CC(C)C)NC(=O)[C@H](Cc1ccccc1)NC(=O)[C@H](CC(N)=O)NC(=O)[C@H](C)NC(=O)[C@H](CC(C)C)NC(=O)[C@H](CCCNC(=N)N)NC(=O)[C@H](CCC(N)=O)NC(=O)[C@@H](NC(=O)[C@H](C)NC(=O)[C@@H]1CSSC[C@H](NC(=O)[C@@H](N)CCCCN)C(=O)N[C@@H](CC(N)=O)C(=O)N[C@@H]([C@@H](C)O)C(=O)N[C@@H](C)C(=O)N[C@@H]([C@@H](C)O)C(=O)N1)[C@@H](C)O)C(C)C)C(=O)NCC(=O)N1CCC[C@H]1C(=O)N[C@H](C(=O)N[C@@H](CC(C)C)C(=O)N1CCC[C@H]1C(=O)N1CCC[C@H]1C(=O)N[C@H](C(=O)N[C@@H](CC(N)=O)C(=O)N[C@H](C(=O)NCC(=O)N[C@@H](CO)C(=O)N[C@@H](CC(N)=O)C(=O)N[C@H](C(=O)N[C@@H](Cc1ccc(O)cc1)C(N)=O)[C@@H](C)O)C(C)C)[C@@H](C)O)C(C)C [rAmy]	170 ± 26	64 ± 8	92 ± 9	95 ± 12	88 ± 12
–	–	–	–	–	–	CC(C)C[C@H](NC(=O)[C@H](CCCCN)NC(=O)CNC(=O)[C@H](CC(C)C)NC(=O)[C@@H](NC(=O)[C@@H]1CSSC[C@H](N)C(=O)N[C@@H](CO)C(=O)N[C@@H](CC(N)=O)C(=O)N[C@@H](CC(C)C)C(=O)N[C@@H](CO)C(=O)N[C@@H]([C@@H](C)O)C(=O)N1)C(C)C)C(=O)N[C@@H](CO)C(=O)N[C@@H](CCC(N)=O)C(=O)N[C@@H](CCC(=O)O)C(=O)N[C@@H](CC(C)C)C(=O)N[C@@H](Cc1c[nH]cn1)C(=O)N[C@@H](CCCCN)C(=O)N[C@@H](CC(C)C)C(=O)N[C@@H](CCC(N)=O)C(=O)N[C@H](C(=O)N[C@@H](Cc1ccc(O)cc1)C(=O)N1CCC[C@H]1C(=O)N[C@@H](CCCNC(=N)N)C(=O)N[C@H](C(=O)N[C@@H](CC(N)=O)C(=O)N[C@H](C(=O)NCC(=O)N[C@@H](CO)C(=O)NCC(=O)N[C@H](C(=O)N1CCC[C@H]1C(N)=O)[C@@H](C)O)[C@@H](C)O)[C@@H](C)O)[C@@H](C)O [sCT]	113 ± 10	69 ± 5	96 ± 5	75 ± 7	95 ± 4
